Assay results published in patent publication US5599953A, “C-glycoside analogues of N-(4-hydroxyphenyl)retinamide-O-glucuronide” (The Ohio State Research Foundation, priority 1995, dated 1997).
Entries after “also recorded” stand apart in the source; their conditions may differ. Like-named read-outs stand apart in the source and are kept apart here. Values belong to the molecule of their own block, whether it stands above or below them.

Assays:
[1] = tested on: hamster tracheal in vitamin A deficient epithelial tissue; conditions: Newton et al.; cited from earlier work
[2] = tested on: cancer; conditions: literature; cited from earlier work
[3] = tested on: DMBA-Induced Rat Mammary Tumors; assay: Effect on progression of DMBA-induced rat mammary tumors; type: in vivo; conditions: 1 mmol/Kg in diet; for tumor latency: 15 mg DMBA oral; for tumor incidents / tumor number/rat: 110 days post intubation
Excerpt: The control rats received DMBA intubation only and AIN-76A rat chow.

[4] = biological target: T1, mRARα (Mus musculus, UniProt P11416); assay: Drug competition with (3H)retinoic acid binding, mRARα; conditions: read-out: percent reduction of binding of the (3H)retinoic acid, mRARα
T1 construct: made in house; host or cells: Spodoptera frugiperda insect cells, baculovirus (whole cell extract)
T1 sequence (P11416 1-462): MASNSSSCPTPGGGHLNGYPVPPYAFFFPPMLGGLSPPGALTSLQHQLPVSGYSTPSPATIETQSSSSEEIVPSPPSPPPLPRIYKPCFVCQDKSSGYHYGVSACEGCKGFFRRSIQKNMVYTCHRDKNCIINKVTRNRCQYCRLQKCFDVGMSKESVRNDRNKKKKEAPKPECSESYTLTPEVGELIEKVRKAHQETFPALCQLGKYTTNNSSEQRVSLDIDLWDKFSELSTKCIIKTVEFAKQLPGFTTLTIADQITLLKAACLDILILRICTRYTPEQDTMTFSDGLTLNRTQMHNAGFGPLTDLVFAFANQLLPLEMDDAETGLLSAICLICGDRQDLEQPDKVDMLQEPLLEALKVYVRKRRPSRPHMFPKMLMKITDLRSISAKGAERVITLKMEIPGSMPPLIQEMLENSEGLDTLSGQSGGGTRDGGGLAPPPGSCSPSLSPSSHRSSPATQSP

[5] = biological target: T2, mRARγ (Mus musculus, UniProt P18911); assay: Drug competition with (3H)retinoic acid binding, mRARγ; conditions: read-out: percent reduction of binding of the (3H)retinoic acid, mRARγ; 1 μM drug; 5 nM [3H]RA
T2 construct: made in house; host or cells: Spodoptera frugiperda insect cells, baculovirus (whole cell extract)
T2 sequence (P18911 1-458): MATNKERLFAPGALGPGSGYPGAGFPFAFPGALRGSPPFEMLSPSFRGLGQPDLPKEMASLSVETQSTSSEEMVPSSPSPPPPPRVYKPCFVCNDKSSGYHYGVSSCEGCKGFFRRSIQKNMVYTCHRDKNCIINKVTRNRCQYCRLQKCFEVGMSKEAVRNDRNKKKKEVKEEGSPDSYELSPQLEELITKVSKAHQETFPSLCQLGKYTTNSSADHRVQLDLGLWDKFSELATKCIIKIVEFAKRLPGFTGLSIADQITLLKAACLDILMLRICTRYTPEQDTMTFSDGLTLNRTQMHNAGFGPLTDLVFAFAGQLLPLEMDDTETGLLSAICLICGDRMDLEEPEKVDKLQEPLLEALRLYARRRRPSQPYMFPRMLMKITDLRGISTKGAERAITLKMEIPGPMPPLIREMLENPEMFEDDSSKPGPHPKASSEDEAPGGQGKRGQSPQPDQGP

[6] = Acid stability, 0.1N HCl at 37° C. for two hours; type: physicochemical
Method: Similarly, 1-(D-glucopyranosyluronosyl) retinamide and RAG were treated with 0.1N HCl at 37° C. for two hours.

[7] = biological target: T3, β-glucuronidase (Homo sapiens, UniProt P08236); assay: Stability toward β-glucuronidase mediated hydrolysis; type: in vitro ADME; conditions: within twenty minutes
T3 sequence (P08236 23-651): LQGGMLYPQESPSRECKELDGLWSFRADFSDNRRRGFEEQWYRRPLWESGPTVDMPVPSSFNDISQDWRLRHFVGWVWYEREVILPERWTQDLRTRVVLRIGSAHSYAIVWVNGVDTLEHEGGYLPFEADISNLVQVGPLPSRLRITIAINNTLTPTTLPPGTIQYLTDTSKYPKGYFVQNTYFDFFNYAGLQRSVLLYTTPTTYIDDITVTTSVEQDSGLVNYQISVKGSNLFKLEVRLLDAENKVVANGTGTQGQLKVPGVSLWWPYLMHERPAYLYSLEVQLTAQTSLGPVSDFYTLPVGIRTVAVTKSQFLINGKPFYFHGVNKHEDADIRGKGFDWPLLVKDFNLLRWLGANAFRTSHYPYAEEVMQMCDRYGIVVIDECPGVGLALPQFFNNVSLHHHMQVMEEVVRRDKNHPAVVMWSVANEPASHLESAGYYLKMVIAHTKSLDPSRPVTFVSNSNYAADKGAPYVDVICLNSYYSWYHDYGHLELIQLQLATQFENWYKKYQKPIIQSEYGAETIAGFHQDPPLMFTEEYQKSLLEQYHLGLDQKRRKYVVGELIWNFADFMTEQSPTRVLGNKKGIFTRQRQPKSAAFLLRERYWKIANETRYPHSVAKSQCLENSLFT
Method: Similarly 1-(D-glucopyranosyluronosyl) retinamide and RAG were evaluated for their stability toward β-glucuronidase medicated hydrolysis under the same conditions as described above.

[8] = biological target: T4, human retinoic acid receptor γ (Homo sapiens, UniProt P13631); assay: Competition binding / retinoic acid binding, human retinoic acid receptor γ/BCV (FIG. 1); conditions: 1.3 nM [3H]-retinoic acid
T4 construct: made in house
T4 sequence (P13631 1-454): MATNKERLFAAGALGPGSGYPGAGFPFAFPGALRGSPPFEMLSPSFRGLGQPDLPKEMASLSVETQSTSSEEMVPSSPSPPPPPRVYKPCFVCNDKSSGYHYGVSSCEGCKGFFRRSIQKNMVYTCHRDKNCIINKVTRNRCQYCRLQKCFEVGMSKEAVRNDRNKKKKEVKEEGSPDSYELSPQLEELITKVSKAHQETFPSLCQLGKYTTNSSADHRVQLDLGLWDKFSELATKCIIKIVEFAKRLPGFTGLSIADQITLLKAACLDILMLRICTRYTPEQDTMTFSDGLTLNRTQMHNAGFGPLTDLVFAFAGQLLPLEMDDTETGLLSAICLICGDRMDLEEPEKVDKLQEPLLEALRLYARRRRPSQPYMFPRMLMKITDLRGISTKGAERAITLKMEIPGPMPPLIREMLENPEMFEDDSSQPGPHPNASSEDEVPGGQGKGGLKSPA

[9] = tested on: carcinogen-induced rat mammary tumors; conditions: cited from earlier work
[10] = biological target: T5, mRARβ (Mus musculus, UniProt P22605); assay: Drug competition with (3H)retinoic acid binding, mRARβ; conditions: read-out: percent reduction of binding of the (3H)retinoic acid, mRARβ; 1 μM drug; 5 nM [3H]RA
T5 construct: made in house; host or cells: Spodoptera frugiperda insect cells, baculovirus (whole cell extract)
T5 sequence (P22605 1-448 isoform P22605-3): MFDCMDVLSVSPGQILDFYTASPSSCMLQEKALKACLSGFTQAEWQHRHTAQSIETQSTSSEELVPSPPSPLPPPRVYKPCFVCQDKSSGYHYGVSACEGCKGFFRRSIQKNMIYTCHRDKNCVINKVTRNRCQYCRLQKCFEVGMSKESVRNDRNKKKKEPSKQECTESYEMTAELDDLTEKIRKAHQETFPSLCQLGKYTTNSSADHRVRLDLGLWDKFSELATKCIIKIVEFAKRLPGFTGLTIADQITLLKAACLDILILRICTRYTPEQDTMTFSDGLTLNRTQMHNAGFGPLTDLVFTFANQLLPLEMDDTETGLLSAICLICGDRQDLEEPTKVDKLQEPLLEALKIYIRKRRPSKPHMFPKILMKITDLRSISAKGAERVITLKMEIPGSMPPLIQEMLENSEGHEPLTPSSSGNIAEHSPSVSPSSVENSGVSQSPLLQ

[11] = tested on: cultured human breast cancer cells; conditions: Bhatnagar et al.; cited from earlier work
[12] = tested on: MCF-7 cells; assay: Growth inhibition of MCF-7 human mammary tumor cells; type: cell-based; conditions: Homo sapiens, MCF7, 168 h, 7 days, read-out: ED50 for growth inhibition of MCF-7 cells
Method: The antiproliferative activity of the drugs in MCF-7 human mammary tumor cell culture models were determined.
The MCF-7 cells were obtained originally from the Michigan Cancer Foundation. The cells were routinely grown as monolayers in T-25 plastic tissue culture flasks from Falcon, in Oxnard, Calif. containing 5.0 mL of B-10 medium consisting of Minimum Essential Medium (MEM, Earle's Base) supplemented with 1.0 mM MEM non-essential amino acid, 2.0 mM 1-glutamine,10% fetal bovine serum (FBS), and antibiotics. Culture conditions included a humidified atmosphere of 5% CO2 at 37° C. One-half of the medium was replenished twice a week. Cells were harvested by trypsinization upon confluency. All variables were evaluated in triplicate.
For the growth inhibition assay the MCF-7 cells were plated in 24-well plates at a density of 1.5×10^4 cells/cm^2. […] Control cultures were treated with an equivalent volume of absolute ethanol. On day 7 the cells were harvested by trypsinization and viability was assessed by trypan blue exclusion according to Ueda, H. et al. Cancer 1980, 46, 2203-2209. Total cell counts were obtained using a hemocytometer as well as a the Coulter Counter.

[13] = substrate: CC1=C(/C=C/C(C)=C/C=C/C(C)=C/C(=O)Nc2ccc(O[C@@H]3O[C@H](C(=O)O)[C@@H](O)[C@H](O)[C@H]3O)cc2)C(C)(C)CCC1; assay: Inhibition of β-glucuronidase mediated hydrolysis of 4-HPR-O-glucuronide; type: biochemical; conditions: other: 4-HPR-O-glucuronide as substrate
Excerpt: Chem. Soc., (1954), 76, 4872-4877.

Molecule: CC1=C(/C=C/C(C)=C/C=C/C(C)=C/C(=O)O)C(C)(C)CCC1 [retinoic acid, reference compound]
reversal of metaplastic condition [1]: can reverse the metaplastic condition of hamster tracheal in vitamin A deficient epithelial tissue
cancer preventive activity [2]: display cancer preventive activity
tumor latency [3]: 49 days
tumor incidents [3]: 83%
tumor number/rat [3]: 1.17 tumors per rat
inhibition at 1 µM [4]: 100%
inhibition at 1 µM [5]: 100%

B1: β-glucuronidase (Homo sapiens) (protein)
chain: T3 sequence (P08236 23-651)
Km [13]: 184.5 µM

Further lines, with some results ahead:

acid stability [6]: remained intact
hydrolysis by β-glucuronidase within twenty minutes [7]: remained intact
Ki [8]: 280 nM
Molecule: CC1=C(/C=C/C(C)=C/C=C/C(C)=C/C(=O)NC2O[C@H](C(=O)O)[C@@H](O)[C@H](O)[C@H]2O)C(C)(C)CCC1 (stereo partly drawn) [1-(D-glucopyranosyluronosyl) retinamide]
effect on DMBA-induced mammary tumor development, in words [3]: significantly prolonged the latency period of mammary cancer; also recorded: tumor induction was markedly delayed and reduced; also recorded: caused the largest reduction in multiple mammary tumors; also recorded: greater mammary tumor chemopreventive effect than does retinoic acid; also recorded: inhibit DMBA induced mammary tumor development
tumor latency [3]: 64 days
tumor incidents [3]: 50%
tumor number/rat [3]: 0.83 tumors per rat

inhibition at 1 µM [10]: 5%
IC50 ([12]; Assay 1): 2800 nM
IC50 ([12]; Assay 2): 1500 nM
IC50 ([12]; Assay 3): 33000 nM
inhibition at 1 µM ([4]; 1 μM drug, 5 nM [3H]RA): 18%
inhibition at 1 µM [5]: 7%
Molecule: CC1=C(/C=C/C(C)=C/C=C/C(C)=C/C(=O)Nc2ccc(O)cc2)C(C)(C)CCC1 [Example 4-HPR, N-(4-hydroxyphenyl) retinamide, reference compound]
breast cancer chemopreventive activity combined with calcium glucarate [9]: synergistically exerts an increased breast cancer chemopreventive activity
cytotoxicity [11]: significant cytotoxicity
cancer preventive activity [2]: displays chemopreventive activity in breast cancer
